Where a name gives a salt, the structure may show the parent alone.
Tests used:
Format in all cases: in vivo
Galium aparine [1] = test: Herbicidal action, field trial (Table 7); settings: application in the 4-5-leaf stage, scoring 26 days after application
Protocol: (§1) Transgenic sugar beet plants with resistance to one or more herbicides (A) were grown together with typical weed plants in the open in 2×5 m plots under natural field conditions; alternatively, the weed population established naturally while the sugar beet plants grew. Treatment with the compositions according to the invention and, for control purposes, with separate application of the active ingredients of the components alone, was carried out under standard conditions with a plot sprayer at an application rate of 200-300 liters of water per hectare in parallel trials in accordance with the scheme of Table 1, i.e. pre-sowing/pre-emergence, post-sowing/pre-emergence or post-emergence at the early, medium or late stage.
(§2) […] Damage and development of all aerial plant organs was recorded. The scoring was done using a percentage scale (100% activity=all plants dead, 50% activity=50% of the plants and green plant organs dead, 0% activity=no discernible effect=like control plot). The score values of in each case 4 plots were averaged.
(§3) In contrast, the sugar beet plants suffered no, or only negligible, damage as a consequence of the treatment with the herbicidal compositions.

Avena fatua = test: Herbicidal action and selectivity in sugar beet crop, field trial (Table 5); settings: application in the 3-5-leaf stage, scoring 4 weeks after application
Protocol: as §1
(§4) At 2, 4, 6 and 8 week intervals after application, the herbicidal activity of the active ingredients or active ingredient mixtures were scored visually by comparing the treated plots with untreated control plots. Damage and development of all aerial plant organs was recorded. The scoring was done using a percentage scale (100% activity=all plants dead, 50% activity=50% of the plants and green plant organs dead, 0% activity=no discernible effect=like control plot). The score values of in each case 4 plots were averaged.
as §3

transgenic sugar beet [2] = test: Damage to transgenic sugar beet, field trial (Table 5); settings: application in the 3-5-leaf stage
Protocol: as §1, §4, §3

transgenic sugar beet [3] = test: Damage to transgenic sugar beet, greenhouse experiment (Table 3); set-up: scale not given here; settings: application in the 4-5-leaf stage
Galium aparine [4] = test: Herbicidal action in sugar beet crop, greenhouse experiment (Table 3); settings: application in the 4-5-leaf stage, scoring 3 weeks after application
From the text: Seeds or rhizomes of monocotyledonous and dicotyledonous weeds are placed in sandy loam soil in cardboard pots, covered with soil and grown in the greenhouse under good growth conditions. […] The compositions according to the invention, which are formulated as wettable powders or as emulsion concentrates, are sprayed at various dosages onto the green plant organs at an application rate of 600 to 800 l of water per ha (converted). After the experimental plants have remained in the greenhouse for approx. 3 to 4 weeks under optimal growth conditions, the effect of the preparations is scored visually in comparison with untreated controls. The compositions according to the invention also have a good herbicidal activity against a broad spectrum of economically important grass weeds and broad-leaved weeds when applied post-emergence.
In this context, activities of the combinations according to the invention are frequently observed which exceed the formal total of the activities when the herbicides are applied individually. The observed values show, at suitably low dosages, an activity of the combinations which exceed Colby's expected values (cf. scoring in Example 1).

transgenic sugar beet [5] = test: Damage to transgenic sugar beet, field trial (Table 4); settings: application in 3-leaf stage
Protocol: as §1, §4, §3

Galium aparine [6] = test: Herbicidal action, field trial (Table 6); settings: application in the 3-5-leaf stage, scoring 4 weeks after application
Protocol: as §1, §4, §3

Setaria viridis = test: Herbicidal action, field trial, sequential treatment (Table 8); settings: dose 200 g A.S./ha; post-emergence at the 2-3-leaf stage; scoring 22 days after application
Protocol: as §1, §2, §3

Amaranthus retroflexus = test: as above; settings: dose 200 g A.S./ha; post-emergence at the 2-3-leaf stage; scoring 22 days after application
Protocol: as §1, §2, §3

transgenic sugar beet [7] = test: Damage to transgenic sugar beet - field trial (Table 2); settings: application in 2-4-leaf stage
Protocol: as §1, §4, §3

With `CC(C)N.O=C(O)CNCP(=O)(O)O` [(A2.2), monoisopropylammonium salt of glyphosate] the “Herbicidal action in % against Galium aparine” value (Galium aparine [1]; dose 125 g A.S./ha) was 10%, the “Herbicidal action in % against Galium aparine” value (Galium aparine [1]; dose 250 g A.S./ha) was 40% and the “Herbicidal action in % against Galium aparine” value (Galium aparine [1]; dose 500 g A.S./ha) was 60%. For the same compound, the “Herbicidal action in % against Galium aparine” value (Galium aparine [1]; dose 1000 g A.S./ha) was 85%.

With `COC(=O)[C@@H](C)Oc1ccc(Oc2ncc(C(F)(F)F)cc2Cl)cc1` [(B3.4), haloxyfop-P-methyl] the “Herbicidal action in % against Avena fatua” value (Avena fatua; dose 15 g A.S./ha) was 20%, the “Herbicidal action in % against Avena fatua” value (Avena fatua; dose 30 g A.S./ha) was 63% and the “Damage to transgenic sugar beet” value (transgenic sugar beet [2]; dose 15 g A.S./ha) was 0. For the same compound, the “Damage to transgenic sugar beet” value (transgenic sugar beet [2]; dose 30 g A.S./ha) was 0.

`COC(=O)Nc1cccc(NC(=O)Oc2cccc(C)c2)c1` [(B2.2), 3-methylphenyl N-[3-(methoxycarbonylamino)phenyl]carbamate] was tested, and the “Damage to transgenic sugar beet” value (transgenic sugar beet [3]; dose 500 g A.S./ha) was 0, the “Damage to transgenic sugar beet” value (transgenic sugar beet [3]; dose 1000 g A.S./ha) was 0 and the “Damage to transgenic sugar beet” value (transgenic sugar beet [3]; dose 2000 g A.S./ha) was 0. For the same compound, the “Herbicidal action in % against Galium aparine” value (Galium aparine [4]; dose 500 g A.S./ha) was 20%, the “Herbicidal action in % against Galium aparine” value (Galium aparine [4]; dose 1000 g A.S./ha) was 30% and the “Herbicidal action in % against Galium aparine” value (Galium aparine [4]; dose 2000 g A.S./ha) was 30%. The “Herbicidal action in % against Galium aparine” value (Galium aparine [1]; dose 500 g A.S./ha) was 20%, the “Herbicidal action in % against Galium aparine” value (Galium aparine [1]; dose 1000 g A.S./ha) was 30% and the “Herbicidal action in % against Galium aparine” value (Galium aparine [1]; dose 2000 g A.S./ha) was 30%.

With `Cc1nnc(-c2ccccc2)c(=O)n1N` [(B1.4), 4-amino-4,5-dihydro-3-methyl-6-phenyl-1,2,4-triazin-5-one] the “Damage to transgenic sugar beet” value (transgenic sugar beet [3]; dose 750 g A.S./ha) was 0, the “Damage to transgenic sugar beet” value (transgenic sugar beet [3]; dose 1500 g A.S./ha) was 0 and the “Damage to transgenic sugar beet” value (transgenic sugar beet [3]; dose 3000 g A.S./ha) was 0.

In the case of `CCCC(=NOCC)C1=C(O)CC(C2CCCSC2)CC1=O` (centres unmarked) [(B4.2), 2-(1-ethoxyiminobuytl)-3-hydroxy-5-thian-3-ylcyclohex-2-enone], the “Damage to transgenic sugar beet” value (transgenic sugar beet [5]; dose 62.5 g A.S./ha) is reported as 0, the “Damage to transgenic sugar beet” value (transgenic sugar beet [5]; dose 125 g A.S./ha) is reported as 0 and the “Damage to transgenic sugar beet” value (transgenic sugar beet [5]; dose 250 g A.S./ha) is reported as 0.

With `CCOC(=O)C(C)Oc1ccc(Oc2nc3ccc(Cl)cc3o2)cc1` (racemic) [(B3.2), fenoxaprop-ethyl (rac.)] the “Damage to transgenic sugar beet” value (transgenic sugar beet [2]; dose 15 g A.S./ha) was 0, the “Damage to transgenic sugar beet” value (transgenic sugar beet [2]; dose 30 g A.S./ha) was 0 and the “Damage to transgenic sugar beet” value (transgenic sugar beet [2]; dose 60 g A.S./ha) was 0.

`CCC/C(=N\OCC)C1=C(O)CC(CC(C)SCC)CC1=O` (centres unmarked) [(B4.1), (E,Z)-2-(1-ethoxyiminobutyl)-5-[2-(ethylthio)propyl]-3-hydroxycyclohex-2-enone] was tested, and the “Damage to transgenic sugar beet” value (transgenic sugar beet [5]; dose 105 g A.S./ha) was 0, the “Damage to transgenic sugar beet” value (transgenic sugar beet [5]; dose 210 g A.S./ha) was 0 and the “Damage to transgenic sugar beet” value (transgenic sugar beet [5]; dose 315 g A.S./ha) was 0.

With `O=C(O)c1nc(Cl)ccc1Cl` [(B2.4), 3,6-dichloropyridine-2-carboxylic acid] the “Damage to transgenic sugar beet” value (transgenic sugar beet [3]; dose 50 g A.S./ha) was 0, the “Damage to transgenic sugar beet” value (transgenic sugar beet [3]; dose 100 g A.S./ha) was 0 and the “Damage to transgenic sugar beet” value (transgenic sugar beet [3]; dose 200 g A.S./ha) was 0.

With `CP(=O)(O)CCC(N)C(=O)O` (centres unmarked) [(A1.2), glufosinate monoammonium salt] the “Damage to transgenic sugar beet” value (transgenic sugar beet [2]; dose 150 g A.S./ha) was 0, the “Damage to transgenic sugar beet” value (transgenic sugar beet [2]; dose 300 g A.S./ha) was 0 and the “Damage to transgenic sugar beet” value (transgenic sugar beet [2]; dose 600 g A.S./ha) was 0. For the same compound, the “Damage to transgenic sugar beet” value (transgenic sugar beet [3]; dose 125 g A.S./ha) was 0, the “Damage to transgenic sugar beet” value (transgenic sugar beet [3]; dose 250 g A.S./ha) was 0 and the “Damage to transgenic sugar beet” value (transgenic sugar beet [3]; dose 500 g A.S./ha) was 0. The “Herbicidal action in % against Galium aparine” value (Galium aparine [6]; dose 250 g A.S./ha) was 20%, the “Herbicidal action in % against Galium aparine” value (Galium aparine [6]; dose 300 g A.S./ha) was 40% and the “Herbicidal action in % against Galium aparine” value (Galium aparine [6]; dose 600 g A.S./ha) was 85%. The “Herbicidal action in % against Galium aparine” value (Galium aparine [4]; dose 125 g A.S./ha) was 45%, the “Herbicidal action in % against Galium aparine” value (Galium aparine [4]; dose 250 g A.S./ha) was 60% and the “Herbicidal action in % against Galium aparine” value (Galium aparine [4]; dose 500 g A.S./ha) was 85%. The “Herbicidal action in % against Setaria viridis” value (Setaria viridis) was 60%, the “Herbicidal action in % against Amaranthus retroflexus” value (Amaranthus retroflexus) was 55% and the “Damage to transgenic sugar beet” value (transgenic sugar beet [7]; dose 37.5 g A.S./ha) was 0. For the same compound, the “Damage to transgenic sugar beet” value (transgenic sugar beet [7]; dose 75 g A.S./ha) was 0, the “Damage to transgenic sugar beet” value (transgenic sugar beet [7]; dose 150 g A.S./ha) was 0 and the “Damage to transgenic sugar beet” value (transgenic sugar beet [7]; dose 300 g A.S./ha) was 0. The “Damage to transgenic sugar beet” value (transgenic sugar beet [5]; dose 0 g A.S./ha) was 0, the “Damage to transgenic sugar beet” value (transgenic sugar beet [5]; dose 10 g A.S./ha) was 0 and the “Damage to transgenic sugar beet” value (transgenic sugar beet [5]; dose 65 g A.S./ha) was 0.

— patent US8530386B2, “Herbicidal compositions for tolerant or resistant sugar beet crops” (Bayer Intellectual Property GmbH, priority 1998, dated 2013)
